Measurements as given in patent publication US11746116B2, “Antibiotic resistance breakers” (KING'S COLLEGE LONDON, priority 2017, dated 2023).
Values after ≈ are worked out from the molar mass of the structure shown. Like-named read-outs stand apart in the source and are kept apart here.

Assays:
Test in all cases: MIC, microdilution broth method
[1] = system: EMRSA16; type: cell-based, Staphylococcus aureus
[2] = system: AYE; type: cell-based, Acinetobacter baumannii; conditions: for MIC, AYE: ESKAPE panel, Gram-negative
[3] = system: M6; type: cell-based; conditions: for MIC, M6: ESKAPE panel, Gram-negative
[4] = system: MSSA9144; type: cell-based, Staphylococcus aureus; conditions: for MIC, MSSA9144: ESKAPE panel, Gram-positive
[5] = system: VRE12201; type: cell-based, Enterococcus faecalis; conditions: for MIC, VRE12201: ESKAPE panel, Gram-positive
[6] = system: VSE775; type: cell-based, Enterococcus faecalis; parameters: MIC, VSE775: unit not given beside the values; conditions: for MIC, VSE775: ESKAPE panel, Gram-positive
[7] = system: EMRSA15; type: cell-based, Staphylococcus aureus
[8] = system: Ab17978; type: cell-based; conditions: for MIC, Ab17978: ESKAPE panel, Gram-negative
[9] = system: PA01; type: cell-based, Pseudomonas aeruginosa; conditions: for MIC, PA01: ESKAPE panel, Gram-negative
[10] = system: VRE12204; type: cell-based, Enterococcus faecium; conditions: in µg/mL; for MIC, VRE12204: ESKAPE panel, Gram-positive; for MIC: VRE12204
[11] = system: EC12923; type: cell-based; conditions: for MIC, EC12923: ESKAPE panel, Gram-negative
[12] = system: KP13368; type: cell-based; conditions: for MIC, KP13368: ESKAPE panel, Gram-negative
[13] = system: PA13437; type: cell-based; conditions: ESKAPE panel, Gram-negative
[14] = AYE, Normal (no PMBN), in µg/mL
[15] = Ab17978, Normal (no PMBN), in µg/mL
[16] = ESKAPE panel, Gram-positive, in µg/mL
[17] = Staphylococcus aureus (EMRSA16), Gram-Positive (Table 14), read-out: MIC
[18] = Klebsiella pneumoniae (M6), Gram-Negative, read-out: MIC
[19] = Pseudomonas aeruginosa (PA01), Gram-Negative, read-out: MIC
[20] = Staphylococcus aureus (MSSA9144), Gram-Positive, read-out: MIC
[21] = Enterococcus faecalis, Enterococcus (VRE12201), Gram-Positive, read-out: MIC
[22] = Enterococcus faecalis, Enterococcus (VRE775), Gram-Positive, read-out: MIC
[23] = Staphylococcus aureus, Staphylococcus aureus (EMRSA15), Gram-Positive (Table 14), read-out: MIC
[24] = Escherichia coli (EC12923), Gram-Negative, read-out: MIC
[25] = Acinetobacter baumannii (AB17978), Gram-Negative, read-out: MIC
[26] = Klebsiella pneumoniae (KP13368), Gram-Negative, read-out: MIC
[27] = PA01, Normal (no PMBN), in µg/mL
[28] = KP13368, Normal (no PMBN), in µg/mL

| SMILES | MIC ([1]; EMRSA16, in µg/mL) | MIC [2, 14] | MIC ([3]; M6, Normal (no PMBN), in µg/mL) | MIC ([4]; MSSA9144, in µg/mL) | MIC ([5]; VRE12201, in µg/mL) | MIC ([6]; VSE775, in µg/mL) | MIC ([7]; EMRSA15, in µg/mL) | MIC [8, 15] | MIC, EMRSA16 [1, 16] | MIC, M6 ([3]; in µg/mL) | MIC, PA01 ([9]; in µg/mL) | MIC, VSE775 [6] | MIC, EMRSA15 [7, 16] | MIC, VRE12204 [10] | MIC, EC12923 ([11]; in µg/mL) | MIC, Ab17978 ([8]; in µg/mL) | MIC, KP13368 [12] [µg/mL] | MIC, MSSA9144 ([4]; in µg/mL) | MIC, VRE12201 ([5]; in µg/mL) | MIC [9, 27] | further results |
| --- | --- | --- | --- | --- | --- | --- | --- | --- | --- | --- | --- | --- | --- | --- | --- | --- | --- | --- | --- | --- | --- |
| O=C(O)c1cn(C2CC2)c2cc(N3CCN(Cc4ccc(CO)cc4)CC3)c(F)cc2c1=O [ML-77-147] | 8 | 16-32 | 0.5-1 | <0.12 | 0.5 | 1 | 8 | 0.25-0.5 |  |  |  |  |  |  |  |  |  |  |  |  |  |
| C[C@H]1COc2c(N3CCN(c4ncc(F)cn4)CC3)c(F)cc3c(=O)c(C(=O)O)cn1c23 [ML-83-010] |  |  |  |  |  |  |  |  | 2 | 4 | 64 | < 0.125 - 0.5 | 2 | 1-4 | 2 | 2 | 32 (≈ 72.2 µM) |  |  |  | MIC [1, 17]: 2 µg/mL (≈ 4.51 µM); MIC [3, 18]: 4 µg/mL (≈ 9.02 µM); MIC [9, 19]: 64 µg/mL (≈ 144 µM); MIC [4, 20]: ≤ 0.125 µg/mL; MIC [5, 21]: ≤ 0.125 µg/mL; MIC [6, 22]: 0.5 µg/mL (≈ 1.13 µM); MIC [7, 23]: 2 µg/mL (≈ 4.51 µM); MIC [11, 24]: 2 µg/mL (≈ 4.51 µM); MIC [8, 25]: 2 µg/mL (≈ 4.51 µM); MIC [12, 26]: 32 µg/mL (≈ 72.2 µM) |
| C[C@H]1COc2c(N3CCC(N4CCN(C)CC4)C3)c(F)cc3c(=O)c(C(=O)O)cn1c23 (stereo partly drawn) [KSN-L31, (3S)-9-fluoro-3-methyl-10-(3-(4-methylpiperazin-1-yl)pyrrolidin-1-yl)-7-oxo-2,3-dihydro-7H-[1,4]oxazino[2,3,4-ij]quinoline-6-carboxylic acid] |  |  |  |  |  |  |  |  | 64 | 4 | 64 | 4 | 64 | 8 | 2 | 4 | 64 (≈ 149 µM) | 0.5-1 | 2 |  |  |
| C[C@H]1COc2c(N3CCC(Nc4ncccn4)C3)c(F)cc3c(=O)c(C(=O)O)cn1c23 (stereo partly drawn) [Compound 82-KSN-L7, (3S)-9-fluoro-3-methyl-7-oxo-10-(3-(pyrimidin-2-ylamino)-pyrrolidin-1-yl)-2,3-dihydro-7H-[1,4]oxazino[2,3,4-ij]quinoline-6-carboxylic acid] | 4 | 64 | 2-4 | ≤0.125-4 | 0.5 | 1-2 | 4 | 1 |  |  |  |  |  |  |  |  |  |  |  | 16 | MIC [10]: 4; MIC ([11]; EC12923, in µg/mL): 1; MIC [12, 28]: 16 |
| COC(=O)c1cnc(N2CCN(c3c(F)cc4c(=O)c(C(=O)O)cn5c4c3OC[C@@H]5C)CC2)nc1 [Compound 82-KSN-L8] | 16 |  | 4 | ≤0.12 | 2 | 4 | 8 | 2 |  |  |  |  |  |  |  |  |  |  |  | 32 | MIC [10]: 4; MIC ([11]; EC12923, in µg/mL): 4; MIC [12, 28]: 32 |
| C[C@H]1COc2c(N3CC[C@@H](N)C3)c(F)cc3c(=O)c(C(=O)O)cn1c23 [KSN-L44-D, (S)-10-((R)-3-aminopyrrolidin-1-yl)-9-fluoro-3-methyl-7-oxo-2,3-dihydro-7H-[1,4]oxazino[2,3,4-ij]quinoline-6-carboxylic acid] |  |  |  |  |  |  |  |  | 32 | ≤0.125 | 0.25-0.5 | 1-4 | 32 | 1 | ≤0.125 | 2 | 4 (≈ 11.5 µM) | 0.25 | 0.5-1 |  | MIC, PA13437 [13]: 32 µg/mL (≈ 92.1 µM) |
| O=C(O)c1cn(C2CC2)c2cc(N3CCN(Cc4cccc5c4OCO5)CC3)c(F)cc2c1=O [ML-77-032] | 64 | 64 | 2 | 0.25-1 | 1 | 2 |  | 0.25 |  |  |  |  |  |  |  |  |  |  |  | 16 |  |
| O=C(O)c1cn(C2CC2)c2cc(N3CCN(Cc4ccccc4)CC3)c(F)cc2c1=O [ML-77-046] | 32 | 64-128 | 2 | 0.12-0.25 | 1-2 | 2-4 |  | 0.25 |  |  |  |  |  |  |  |  |  |  |  |  | MIC [10]: 4-8 |
| C[C@H]1COc2c(N3CCC(N4CCOCC4)C3)c(F)cc3c(=O)c(C(=O)O)cn1c23 (stereo partly drawn) [KSN-L33, (3S)-9-fluoro-3-methyl-10-(3-morpholinopyrrolidin-1-yl)-7-oxo-2,3-dihydro-7H-[1,4]oxazino[2,3,4-ij]quinoline-6-carboxylic acid] |  |  |  |  |  |  |  |  | 16-32 | 8 | 32-64 | 4 | 16 | 4 | 2 | 2 | 32 (≈ 76.7 µM) | 0.25 | 2 |  |  |
| C[C@H]1COc2c(N3CCN(c4ccccn4)CC3)c(F)cc3c(=O)c(C(=O)O)cn1c23 [ML-83-0018, (S)-9-fluoro-3-methyl-7-oxo-w-(4-(pyridin-2-yl)piperazin-1-yl)-2,3-dihydro-7H-[1,4]oxazino[2,3,4-ij]quinoline-6-carboxylic acid] | 8 |  | 8 | ≤0.12 | 0.25 | 0.25-0.5 | 4 | 2 |  |  |  |  |  |  |  |  |  |  |  | 64 | MIC [10]: 2; MIC ([11]; EC12923, in µg/mL): 2-4; MIC [12, 28]: 32 |
| C[C@H]1COc2c(N3CCCN(c4cnccn4)CC3)c(F)cc3c(=O)c(C(=O)O)cn1c23 [ML-83-041 (5.16), (S)-9-fluoro-3-methyl-7-oxo-10-(4-(pyrazin-2-yl)-1,4-diazepan-1-yl)-2,3-dihydro-7H-[1,4]oxazino[2,3,4-ij]quinoline-6-carboxylic acid] | 8 | 64-128 | 2 | ≤0.125 | 0.5-1 | 1 | 4-8 | 1 |  |  |  |  |  |  |  |  |  |  |  | 16-32 | MIC [10]: 4; MIC ([11]; EC12923, in µg/mL): 1-2; MIC [12, 28]: 16-32 |
| C[C@H]1COc2c(N3CC[C@H](Nc4ncc(N)cn4)C3)c(F)cc3c(=O)c(C(=O)O)cn1c23 [KSN-L62, (S)-10-((S)-3-((5-aminopyrimidin-2-yl)amino)pyrrolidin-1-yl)-9-fluoro-3-methyl-7-oxo-2,3-dihydro-7H-[1,4]oxazino[2,3,4-ij]quinoline-6-carboxylic acid] |  |  |  |  |  |  |  |  | 4 | 1 | 8 | ≤0.125 | 1 | 1 | 1 | 0.25 | 16 (≈ 36.3 µM) | ≤0.125 | ≤0.125 |  | MIC, AYE ([2]; in µg/mL): 4 |
| C[C@H]1COc2c(N3CC[C@@H](Nc4cnccn4)C3)c(F)cc3c(=O)c(C(=O)O)cn1c23 [KSN-BL1, (S)-9-fluoro-3-methyl-7-oxo-10-((R)-3-(pyrazin-2-ylamino)pyrrolidin-1-yl)-2,3-dihydro-7H-[1,4]oxazino[2,3,4-ij]quinoline-6-carboxylic acid] |  |  |  |  |  |  |  |  | 1 | 0.5 | 4 | ≤0.125 | 1 | 0.5 | 0.25-0.5 | 0.25 | 8 (≈ 18.8 µM) | ≤0.125 | ≤0.125 |  | MIC, EMRSA16 ([1]; EMRSA16 (Table 16, role of the terminal pyrimidine ring), in µg/mL): 1; MIC [1, 17]: 1 µg/mL (≈ 2.35 µM); MIC ([2]; Acinetobacter baumannii (AYE), Gram-Negative, read-out: MIC): 8 µg/mL (≈ 18.8 µM); MIC, AYE ([2]; in µg/mL): 8; MIC [3, 18]: 0 to 5 µg/mL; MIC [9, 19]: 4 µg/mL (≈ 9.4 µM); MIC [4, 20]: ≤ 0.125 µg/mL; MIC [5, 21]: ≤ 0.125 µg/mL; MIC [6, 22]: ≤ 0.125 µg/mL; MIC, EMRSA15 ([7]; EMRSA15 (Table 16, role of the terminal pyrimidine ring), in µg/mL): 1; MIC [7, 23]: 1 µg/mL (≈ 2.35 µM); MIC [11, 24]: 0.25 µg/mL (≈ 0.588 µM); MIC [8, 25]: 0.25 µg/mL (≈ 0.588 µM); MIC [12, 26]: 8 µg/mL (≈ 18.8 µM) |
